From the supplement of paper PMC7645387

Columns and labels:
Assay in all cases: growth inhibition relative to DMSO control (fraction); higher = stronger growth inhibition
Conditions in all cases: treatment time: 6 days
HDFB = tested on: HDFB
Method: (§1)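 Drug combination matrices: GSK-LSD1 (0, 1, 10, 100 nM) was combined with a second epigenetic drug (0 to 10 uM) on MCC lines PeTa and MKL-1 and on HDFB fibroblasts for 6 days, in quadruplicate. Viability was read by CellTiter-Glo 2.0. The response is the fraction of growth inhibition relative to DMSO, as input to synergyfinder Bliss analysis.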

MKL-1 = tested on: MKL-1
Method: as §1

PeTa = tested on: PeTa
Method: as §1

c1ccc([C@@H]2C[C@H]2NC2CCNCC2)cc1 [GSK-LSD1] + Cc1cc2c(cc1N1C(=O)c3cccc4c(CCCO)ccc(c34)C1=O)n(C)c(=O)n2C [BAY299]
growth inhibition
Conditions	partner concentration 0 nM	partner concentration 1 nM	partner concentration 10 nM	partner concentration 100 nM	partner concentration 1000 nM	partner concentration 10000 nM
HDFB, GSK-LSD1 concentration 0 nM	–	-0.0107	-0.0132	0.0763	0.607	0.697
HDFB, GSK-LSD1 concentration 1 nM	-0.0232	-0.0193	0.0121	0.0867	0.635	0.702
HDFB, GSK-LSD1 concentration 10 nM	0.076	0.0719	0.0472	0.207	0.674	0.727
HDFB, GSK-LSD1 concentration 100 nM	0.0758	0.0715	0.0856	0.201	0.695	0.713
MKL-1, GSK-LSD1 concentration 0 nM	–	0.0343	-0.000673	0.0416	0.844	0.999
MKL-1, GSK-LSD1 concentration 1 nM	0.104	0.0952	0.0872	0.0914	0.936	0.999
MKL-1, GSK-LSD1 concentration 10 nM	0.516	0.425	0.457	0.475	0.972	1
MKL-1, GSK-LSD1 concentration 100 nM	0.753	0.738	0.69	0.722	0.981	1
PeTa, GSK-LSD1 concentration 0 nM	–	-0.0148	-0.062	0.00688	0.806	0.998
PeTa, GSK-LSD1 concentration 1 nM	-0.0592	-0.0708	-0.0758	0.0174	0.764	0.997
PeTa, GSK-LSD1 concentration 10 nM	0.258	0.223	0.194	0.304	0.836	0.999
PeTa, GSK-LSD1 concentration 100 nM	0.749	0.743	0.723	0.736	0.989	0.999

c1ccc([C@@H]2C[C@H]2NC2CCNCC2)cc1 [GSK-LSD1] + Cc1sc2c(c1C)C(c1ccc(Cl)cc1)=N[C@@H](CC(=O)OC(C)(C)C)c1nnc(C)n1-2 [(+)-JQ1]
growth inhibition
Conditions	partner concentration 0 nM	partner concentration 1 nM	partner concentration 10 nM	partner concentration 100 nM	partner concentration 1000 nM	partner concentration 10000 nM
HDFB, GSK-LSD1 concentration 0 nM	–	-0.0405	-0.0664	0.475	0.743	0.784
HDFB, GSK-LSD1 concentration 1 nM	0.0649	0.0389	0.0119	0.469	0.75	0.796
HDFB, GSK-LSD1 concentration 10 nM	0.0598	0.0402	0.0248	0.531	0.761	0.792
HDFB, GSK-LSD1 concentration 100 nM	0.0941	0.0548	0.115	0.607	0.773	0.817
MKL-1, GSK-LSD1 concentration 0 nM	–	-0.032	-0.0639	0.818	0.994	0.997
MKL-1, GSK-LSD1 concentration 1 nM	0.00341	-0.0162	-0.0305	0.799	0.994	0.998
MKL-1, GSK-LSD1 concentration 10 nM	0.349	0.33	0.364	0.849	0.999	1
MKL-1, GSK-LSD1 concentration 100 nM	0.792	0.766	0.766	0.917	0.999	1
PeTa, GSK-LSD1 concentration 0 nM	–	-0.0721	-0.114	0.804	0.95	0.976
PeTa, GSK-LSD1 concentration 1 nM	-0.00975	-0.0422	-0.106	0.67	0.945	0.968
PeTa, GSK-LSD1 concentration 10 nM	0.536	0.522	0.489	0.848	0.975	0.995
PeTa, GSK-LSD1 concentration 100 nM	0.819	0.765	0.749	0.925	0.995	0.998

c1ccc([C@@H]2C[C@H]2NC2CCNCC2)cc1 [GSK-LSD1] + CN1CCN(c2ccc(-c3cccc(CN4CCOCC4)c3)cc2NC(=O)c2c[nH]c(=O)cc2C(F)(F)F)CC1 [OICR9429]
growth inhibition
Conditions	partner concentration 0 nM	partner concentration 1 nM	partner concentration 10 nM	partner concentration 100 nM	partner concentration 1000 nM	partner concentration 10000 nM
HDFB, GSK-LSD1 concentration 0 nM	–	-0.0114	0.00661	-0.0286	0.11	0.593
HDFB, GSK-LSD1 concentration 1 nM	0.0144	0.0294	0.0019	0.0389	0.171	0.68
HDFB, GSK-LSD1 concentration 10 nM	0.091	0.0858	0.0542	0.0911	0.22	0.651
HDFB, GSK-LSD1 concentration 100 nM	0.149	0.113	0.145	0.139	0.282	0.676
MKL-1, GSK-LSD1 concentration 0 nM	–	-0.0407	-0.0602	-0.0599	-0.0444	-0.00949
MKL-1, GSK-LSD1 concentration 1 nM	0.0584	0.0967	0.0719	0.0573	0.0606	0.0783
MKL-1, GSK-LSD1 concentration 10 nM	0.357	0.381	0.381	0.355	0.398	0.438
MKL-1, GSK-LSD1 concentration 100 nM	0.717	0.695	0.709	0.735	0.775	0.797
PeTa, GSK-LSD1 concentration 0 nM	–	-0.0155	-0.0439	-0.00944	0.0255	0.143
PeTa, GSK-LSD1 concentration 1 nM	-0.0127	-0.0233	-0.0546	-0.0748	0.0274	0.0895
PeTa, GSK-LSD1 concentration 10 nM	0.451	0.456	0.365	0.381	0.437	0.509
PeTa, GSK-LSD1 concentration 100 nM	0.808	0.808	0.787	0.806	0.827	0.863

c1ccc([C@@H]2C[C@H]2NC2CCNCC2)cc1 [GSK-LSD1] + CCOC(=O)NCCCC(=O)NCCc1ccccc1 [Santacruzamate A]
growth inhibition
Conditions	partner concentration 0 nM	partner concentration 1 nM	partner concentration 10 nM	partner concentration 100 nM	partner concentration 1000 nM	partner concentration 10000 nM
HDFB, GSK-LSD1 concentration 0 nM	–	0.0152	0.0273	-0.00476	0.025	-0.0257
HDFB, GSK-LSD1 concentration 1 nM	0.0274	0.0683	0.0641	0.0608	0.0549	0.0385
HDFB, GSK-LSD1 concentration 10 nM	0.103	0.132	0.111	0.109	0.0931	0.0944
HDFB, GSK-LSD1 concentration 100 nM	0.209	0.215	0.245	0.258	0.258	0.248
MKL-1, GSK-LSD1 concentration 0 nM	–	0.00478	-0.00416	-0.0025	-0.0148	-0.0477
MKL-1, GSK-LSD1 concentration 1 nM	0.0491	0.0627	0.0768	0.068	0.072	0.014
MKL-1, GSK-LSD1 concentration 10 nM	0.266	0.253	0.298	0.281	0.242	0.184
MKL-1, GSK-LSD1 concentration 100 nM	0.748	0.763	0.741	0.763	0.696	0.755
PeTa, GSK-LSD1 concentration 0 nM	–	-0.00232	0.00932	0.0171	-0.000556	-0.0248
PeTa, GSK-LSD1 concentration 1 nM	0.0188	0.0434	0.0394	0.0494	0.0221	-0.00432
PeTa, GSK-LSD1 concentration 10 nM	0.412	0.412	0.418	0.432	0.466	0.403
PeTa, GSK-LSD1 concentration 100 nM	0.786	0.751	0.762	0.748	0.793	0.814
